Data on two compounds can be found in patent US20080227637A1, “A Method of Controlling Weeds” (BASF Aktiengesellschaft, priority 2005, published 2008).

Holding throughout (format): in vivo
In experiment [1] the test system is Glyphosate resistant cotton. The experiment in a line: Field test, control of glyphosate resistant cotton in post-directed treatment. The conditions noted are these: glyphosate 560 g/ha. As for the experimental part:
(§1) In the examples below, the value E which is to be expected if the activity of the individual compounds is just additive was calculated using the method of S. R. Colby (1967) “Calculating synergistic and antagonistic responses of herbicide combinations”, Weeds 15, p. 22 ff.
(§2) where X=effect in percent using active compound A at an application rate a; Y=effect in percent using active compound B at an application rate b; E=expected effect (in %) of A+B at application rates a+b.
(§3) If the experimentally determined value is higher than the value E calculated according to Colby's equation, a synergistic effect is present.
(§4) The phenyluracils I and/or the other active ingredients according to the present invention were formulated in a suitable way, either separately or in mixture, e.g. as emulsifiable concentrates (EC), soluble concentrates (SL), suspo-emulsions (SE), suspension concentrates (SC) or water-dispersible granules (WG). The formulation(s) were suspended or emulsified in water as a distribution medium immediately prior to spraying. Afterwards, the aqueous mixture was evenly sprayed on the test plots or plant pots by means of finely distributing nozzles.
(§5) As regards the field tests, the test plots were of uniform size (typically between 14 and 37 square meters, each) and the distribution of treated and untreated plots was organized according to a randomised bloc design. […]

Experiment [2] relates to Glyphosate resistant marestail (ERICA). Nature of the experiment: Greenhouse test, post-emergence control of glyphosate resistant marestail. Conditions: use rate 420 g/ha.
Text: as §4
(§6) For the greenhouse tests, plants were grown in pots to a height between 3 and 6 cm, and then treated (post-emergence). During the test period of 29 days, the plants were tended.
(§7) The evaluation of the damage caused by the phenyluracils I and/or the other active ingredients according to the present invention was carried out using a scale from 0 to 100%, compared to the untreated control plots. Here, 0 means no damage and 100 means complete destruction of the plants of a respective weed or crop species.
(§8) In this example, glyphosate (isopropylammonium salt) was formulated as a 353 g/l SL and Phenyluracil I.7 as a 120 g/l EC. Prior to application, the formulated active ingredients were tank-mixed with an aqueous 187 l/ha spray solution which contained, in addition, 15 g/l of ammonium sulphate and 2.5 g/l of non-ionic surfactant.

Experiment [3] has as its system Glyphosate susceptible marestail (ERICA). Nature of the experiment: Greenhouse test, post-emergence control of glyphosate susceptible marestail. Conditions: use rate 420 g/ha.
Text: as §4, §6, §7, §8

For experiment [4], the system named is glyphosate resistant corn. Nature of the experiment: Field test, control of volunteer glyphosate resistant corn by pre-emergence application. The conditions noted are these: Imazethapyr 70 g/ha, pre-emergence to soybean crop. Here is the method: as §1, §2, §3, §4, §5

In the case of `O=C(O)CNCP(=O)(O)O` [Glyphosate, glyphosate], the “Glyphosate resistant cotton at 3 DAT (% control), Found” value in experiment [1] came out at 0%. For the same compound, the “Glyphosate resistant marestail (ERICA) at 29 DAT (% herbicide control)” value in experiment [2] was 0%. The “Glyphosate susceptible marestail (ERICA) at 29 DAT (% herbicide control)” value in experiment [3] turned out to be 98%.
For `CCc1cnc(C2=NC(C)(C(C)C)C(=O)N2)c(C(=O)O)c1` (stereo not shown) [Imazethapyr, imazethapyr], the “Control of glyphosate resistant corn at 29 DAT (% control), Found” value in experiment [4] was found to be 23%.
